In brackets after ≈: the same amount, converted by molar mass.
Legend:
[1] = system: Staphylococcus aureus S13E; type: cell-based
Protocol: (§1) The MIC's were determined using a standard broth micro-dilution assay.

[2] = system: Entercoccus faecium 180-1; assay: broth micro-dilution MIC; type: cell-based
Protocol: as §1

Entercoccus faecium 276 = assay: broth micro-dilution MIC; type: cell-based
Protocol: as §1

[3] = system: Staphylococcus aureus 446; assay: broth micro-dilution MIC; type: cell-based
Protocol: as §1

[4] = system: Staphylococcus aureus 447; assay: broth micro-dilution MIC; type: cell-based
Protocol: as §1

[5] = system: Staphylococcus aureus 489; assay: broth micro-dilution MIC; type: cell-based
Protocol: as §1

[6] = system: Staphylococcus aureus SA1199A; assay: broth micro-dilution MIC; type: cell-based
Protocol: as §1

[7] = system: Staphylococcus aureus X400; assay: broth micro-dilution MIC; type: cell-based
Protocol: as §1

[8] = system: Streptococcus pyogenes C203; assay: broth micro-dilution MIC; type: cell-based
Protocol: as §1

Entercoccus faecium 180 = assay: broth micro-dilution MIC; type: cell-based; settings: Entercoccus faecium 180
Protocol: (§2) The formula I compounds have in vitro and in vivo activity against Gram-positive pathogenic bacteria. The MIC's were determined using a standard broth micro-dilution assay.

[9] = system: Haemophilus influenzae RD; assay: broth micro-dilution MIC; type: cell-based; settings: Haemophilus influenzae RD
Protocol: as §2

[10] = system: Staphylococcus epidermidis 270; assay: broth micro-dilution MIC; type: cell-based
Protocol: as §2

[11] = system: Staphylococcus haemolyticus 105; assay: broth micro-dilution MIC; type: cell-based
Protocol: as §2

[12] = system: Staphylococcus haemolyticus 415; assay: broth micro-dilution MIC; type: cell-based
Protocol: as §2

[13] = system: Streptococcus pneumoniae P1; assay: broth micro-dilution MIC; type: cell-based
Protocol: as §2

[14] = system: vancomycin-resistant enterococci; assay: broth micro-dilution, mean geometric MIC; type: cell-based, Enterococcus faecium and Enterococcus faecalis; settings: enterococci, 24-hour incubation
[15] = system: vancomycin-susceptible enterococci; assay: broth micro-dilution, mean geometric MIC; type: cell-based, Enterococcus faecium and Enterococcus faecalis; settings: enterococci, 24-hour incubation
[16] = system: Staphylococcus aureus SA1199B; type: cell-based
Protocol: as §1

[17] = system: Staphylococcus aureus SA1199; assay: broth micro-dilution MIC; type: cell-based
Protocol: as §1

Entercoccus faecium 2041 = assay: broth micro-dilution MIC; type: cell-based; settings: Entercoccus faecium 2041
Protocol: as §2

[18] = system: Enterococcus gallinarum 245; assay: broth micro-dilution MIC; type: cell-based; settings: Enterococcus gallinarum 245
Protocol: as §2

[19] = system: Staphylococcus aureus X778; assay: broth micro-dilution MIC; type: cell-based
Protocol: as §1

Structure (SMILES)	MIC [1] [mg/L]	MIC [2] [mg/L]	MIC (Entercoccus faecium 276) [mg/L]	MIC [3] [mg/L]	MIC [4] [mg/L]	MIC [5] [mg/L]	MIC [6] [mg/L]	MIC [7] [mg/L]	MIC [8] [mg/L]	MIC (Entercoccus faecium 180) [mg/L]	MIC [9] [mg/L]	MIC [11] [mg/L]	MIC [12] [mg/L]	MIC [13] [mg/L]	mean geometric MIC, Vancomycin Resistant Strains [14] [mg/L]	mean geometric MIC, Vancomycin Sensitive Strains [15] [mg/L]	MIC [16] [mg/L]	MIC [17] [mg/L]	MIC (Entercoccus faecium 2041) [mg/L]	MIC [18] [mg/L]	other results
CNC(CC(C)C)C(=O)NC1C(=O)NC(CC(N)=O)C(=O)NC2C(=O)NC3C(=O)NC(C(=O)NC(C(=O)O)c4cc(O)cc(O)c4-c4cc3ccc4O)C(OC3CC(C)(N)C(O)C(C)O3)c3ccc(c(Cl)c3)Oc3cc2cc(c3OC2OC(CO)C(O)C(O)C2OC2CC(C)(NCc3c(OC)ccc4ccccc34)C(O)C(C)O2)Oc2ccc(cc2Cl)C1O (stereo not drawn) [Compound 9]	0.5 (≈ 0.284 µM)	≤ 0.06	0.26 (≈ 0.148 µM)	2 (≈ 1.13 µM)	4 (≈ 2.27 µM)	0.5 (≈ 0.284 µM)	≤ 0.06	0.5 (≈ 0.284 µM)	≤ 0.06	1 (≈ 0.567 µM)	≤ 0.06	4 (≈ 2.27 µM)	4 (≈ 2.27 µM)	≤ 0.06	11	0.38	–	–	–	–	MIC [10]: 16 mg/L (≈ 9.08 µM)
CNC(CC(C)C)C(=O)NC1C(=O)NC(CC(N)=O)C(=O)NC2C(=O)NC3C(=O)NC(C(=O)NC(C(=O)O)c4cc(O)cc(O)c4-c4cc3ccc4O)C(OC3CC(C)(N)C(O)C(C)O3)c3ccc(c(Cl)c3)Oc3cc2cc(c3OC2OC(CO)C(O)C(O)C2OC2CC(C)(NCc3ccc(OC(F)F)cc3)C(O)C(C)O2)Oc2ccc(cc2Cl)C1O (stereo not drawn) [Compound 72]	≤ 0.06	≤ 0.06	≤ 0.06	2 (≈ 1.14 µM)	1 (≈ 0.572 µM)	≤ 0.06	≤ 0.06	–	–	0.5 (≈ 0.286 µM)	32 (≈ 18.3 µM)	1 (≈ 0.572 µM)	4 (≈ 2.29 µM)	–	4.7	0.28	≤ 0.06	1 (≈ 0.572 µM)	≤ 0.06	4 (≈ 2.29 µM)	–
CNC(CC(C)C)C(=O)NC1C(=O)NC(CC(N)=O)C(=O)NC2C(=O)NC3C(=O)NC(C(=O)NC(C(=O)O)c4cc(O)cc(O)c4-c4cc3ccc4O)C(OC3CC(C)(N)C(O)C(C)O3)c3ccc(c(Cl)c3)Oc3cc2cc(c3OC2OC(CO)C(O)C(O)C2OC2CC(C)(NCCc3ccc4ccccc4c3)C(O)C(C)O2)Oc2ccc(cc2Cl)C1O (stereo not drawn) [Compound 179]	–	≤ 0.06	≤ 0.06	–	–	≤ 0.06	≤ 0.06	≤ 0.06	≤ 0.06	≤ 0.06	4 (≈ 2.29 µM)	0.5 (≈ 0.286 µM)	1 (≈ 0.573 µM)	≤ 0.06	1.7	0.060	–	1 (≈ 0.573 µM)	≤ 0.06	1 (≈ 0.573 µM)	MIC [19]: ≤ 0.06 mg/L
CNC(CC(C)C)C(=O)NC1C(=O)NC(CC(N)=O)C(=O)NC2C(=O)NC3C(=O)NC(C(=O)NC(C(=O)O)c4cc(O)cc(O)c4-c4cc3ccc4O)C(O)c3ccc(c(Cl)c3)Oc3cc2cc(c3OC2OC(CO)C(O)C(O)C2OC2CC(C)(NCc3ccc(-c4ccccc4)cc3)C(O)C(C)O2)Oc2ccc(cc2Cl)C1O (stereo not drawn) [Compound 181]	≤ 0.06	≤ 0.06	2 (≈ 1.24 µM)	≤ 0.06	≤ 0.06	≤ 0.06	≤ 0.06	≤ 0.06	≤ 0.06	4 (≈ 2.48 µM)	32 (≈ 19.8 µM)	0.25 (≈ 0.155 µM)	1 (≈ 0.619 µM)	≤ 0.06	8.0	0.060	≤ 0.06	≤ 0.06	–	≤ 0.06	MIC [19]: ≤ 0.06 mg/L
CNC(CC(C)C)C(=O)NC1C(=O)NC(CC(N)=O)C(=O)NC2C(=O)NC3C(=O)NC(C(=O)NC(C(=O)O)c4cc(O)cc(O)c4-c4cc3ccc4O)C(OC3CC(C)(N)C(O)C(C)O3)c3ccc(c(Cl)c3)Oc3cc2cc(c3OC2OC(CO)C(O)C(O)C2OC2CC(C)(NCCCCCCc3ccccc3)C(O)C(C)O2)Oc2ccc(cc2Cl)C1O (stereo not drawn) [Compound 196]	1 (≈ 0.571 µM)	≤ 0.06	–	0.5 (≈ 0.285 µM)	0.5 (≈ 0.285 µM)	1 (≈ 0.571 µM)	≤ 0.06	0.5 (≈ 0.285 µM)	≤ 0.06	0.5 (≈ 0.285 µM)	32 (≈ 18.3 µM)	0.5 (≈ 0.285 µM)	1 (≈ 0.571 µM)	≤ 0.06	1.7	0.027	0.5 (≈ 0.285 µM)	0.5 (≈ 0.285 µM)	≤ 0.06	1 (≈ 0.571 µM)	MIC [19]: 1 mg/L (≈ 0.571 µM)
CNC(CC(C)C)C(=O)NC1C(=O)NC(CC(N)=O)C(=O)NC2C(=O)NC3C(=O)NC(C(=O)NC(C(=O)O)c4cc(O)cc(O)c4-c4cc3ccc4O)C(OC3CC(C)(N)C(O)C(C)O3)c3ccc(c(Cl)c3)Oc3cc2cc(c3OC2OC(CO)C(O)C(O)C2OC2CC(C)(NCc3ccc(-c4ccccc4C)cc3)C(O)C(C)O2)Oc2ccc(cc2Cl)C1O (stereo not drawn) [Compound 209]	0.5 (≈ 0.282 µM)	≤ 0.06	–	1 (≈ 0.564 µM)	1 (≈ 0.564 µM)	1 (≈ 0.564 µM)	≤ 0.06	1 (≈ 0.564 µM)	≤ 0.06	≤ 0.06	16 (≈ 9.03 µM)	0.5 (≈ 0.282 µM)	1 (≈ 0.564 µM)	≤ 0.06	1.2	0.136	0.5 (≈ 0.282 µM)	–	≤ 0.06	1 (≈ 0.564 µM)	MIC [19]: 1 mg/L (≈ 0.564 µM); MIC [10]: 0.15 mg/L (≈ 0.0846 µM)
C=CCCCOc1ccc(CNC2(C)CC(OC3C(Oc4c5cc6cc4Oc4ccc(cc4Cl)C(OC4CC(C)(N)C(O)C(C)O4)C4NC(=O)C(NC(=O)C6NC(=O)C(CC(N)=O)NC(=O)C(NC(=O)C(CC(C)C)NC)C(O)c6ccc(c(Cl)c6)O5)c5ccc(O)c(c5)-c5c(O)cc(O)cc5C(C(=O)O)NC4=O)OC(CO)C(O)C3O)OC(C)C2O)cc1 (stereo not drawn) [Compound 226]	0.5 (≈ 0.283 µM)	≤ 0.06	–	1 (≈ 0.566 µM)	0.5 (≈ 0.283 µM)	0.5 (≈ 0.283 µM)	–	–	≤ 0.06	≤ 0.06	32 (≈ 18.1 µM)	2 (≈ 1.13 µM)	1 (≈ 0.566 µM)	≤ 0.06	1.6	0.041	1 (≈ 0.566 µM)	1 (≈ 0.566 µM)	≤ 0.06	1 (≈ 0.566 µM)	MIC [10]: 1 mg/L (≈ 0.566 µM)

Reference: patent US5840684A, “Glycopeptide antibiotic derivatives” (Eli Lilly and Company, priority 1995, dated 1998)
